For 2 compounds, IC50 results are on record in ChEMBL document CHEMBL1158908, “Diyne Enol Ethers of Glycerol from a New Zealand Sponge, Petrosia hebes” (1990).

The structures appear in SMILES notation.

This assay deals with P388. Kind of assay: Cytotoxicity against mouse P388 cells. Format: functional. Particulars: read-out: ID50 (the source's name).

For `CCCCCCCCCC(O)C#CC#C/C=C\OCC(O)CO` (configuration not stated), the IC50 was more than 11 µg/mL.
Next, `CC(C)CCCCCC(O)C#CC#C/C=C\OCC(O)CO` (configuration not stated): more than 6 µg/mL.
